# Target: T1, human TRPA1 (Homo sapiens, UniProt O75762)
# T1 construct: expressed in transfected cells; host or cells: Human embryonic kidney-derived 293T cells, transiently transfected with the pcDNA3.1/zeo(+) human TRPA1 plasmid
# Test: Measurement of TRPA1 antagonist activity (intracellular calcium increase, FLIPR, allylisothiocyanate stimulation)
# Type: cell-based
# Conditions: allylisothiocyanate 20 μM stimulation, FLIPR calcium assay; read-out: antagonism hTRPA1
# Summary of the method: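 IC50 derives from a sigmoid fit of inhibition of the 5-min FLIPR fluorescence change evoked by 20 μM allylisothiocyanate, normalized between agonist and buffer responses. Test substance, diluted in HBSS/20 mM HEPES pH 7.2 plus 0.1% BSA, was applied 10 min beforehand at room temperature to Calcium4-loaded 293T cells transiently expressing human TRPA1.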
# T1 sequence (O75762 whole entry): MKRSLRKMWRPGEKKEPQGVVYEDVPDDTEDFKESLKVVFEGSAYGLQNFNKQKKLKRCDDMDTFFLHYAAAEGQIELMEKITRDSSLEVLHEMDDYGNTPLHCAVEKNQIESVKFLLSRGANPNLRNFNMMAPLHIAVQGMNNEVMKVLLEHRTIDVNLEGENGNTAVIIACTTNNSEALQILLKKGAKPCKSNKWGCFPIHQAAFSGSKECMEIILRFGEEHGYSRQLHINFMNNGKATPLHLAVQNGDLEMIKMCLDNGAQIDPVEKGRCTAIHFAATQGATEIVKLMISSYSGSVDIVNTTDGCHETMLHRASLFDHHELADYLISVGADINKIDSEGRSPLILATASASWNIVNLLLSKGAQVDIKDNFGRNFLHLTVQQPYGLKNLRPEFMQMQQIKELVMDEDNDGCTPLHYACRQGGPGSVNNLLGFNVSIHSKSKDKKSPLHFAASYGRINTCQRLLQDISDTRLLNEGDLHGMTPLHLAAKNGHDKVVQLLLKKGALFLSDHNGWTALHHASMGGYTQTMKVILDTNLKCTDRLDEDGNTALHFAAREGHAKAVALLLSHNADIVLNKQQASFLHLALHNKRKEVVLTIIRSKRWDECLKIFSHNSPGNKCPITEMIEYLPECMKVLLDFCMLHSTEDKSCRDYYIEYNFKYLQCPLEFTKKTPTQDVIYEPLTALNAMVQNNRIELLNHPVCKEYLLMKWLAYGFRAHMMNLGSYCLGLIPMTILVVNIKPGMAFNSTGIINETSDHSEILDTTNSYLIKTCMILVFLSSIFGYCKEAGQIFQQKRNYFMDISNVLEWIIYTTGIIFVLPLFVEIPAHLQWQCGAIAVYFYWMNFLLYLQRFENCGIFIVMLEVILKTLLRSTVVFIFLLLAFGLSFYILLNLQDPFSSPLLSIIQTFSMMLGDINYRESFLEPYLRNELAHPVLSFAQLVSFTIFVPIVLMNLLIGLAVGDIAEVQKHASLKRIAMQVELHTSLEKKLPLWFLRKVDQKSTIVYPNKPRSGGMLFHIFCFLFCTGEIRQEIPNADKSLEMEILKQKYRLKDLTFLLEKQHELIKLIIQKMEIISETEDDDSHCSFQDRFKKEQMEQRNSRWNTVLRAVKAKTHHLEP
row,Structure (SMILES),IC50 [nM]
1,"O=C(NCc1cccc(Oc2ccc(C(F)(F)F)cc2)c1)[C@@H]1CCCN1S(=O)(=O)c1ccc(F)c(F)c1 [Example 187, (2S)-1-(3,4-difluorophenyl)sulfonyl-N-[[3-[4-(trifluoromethyl)phenoxy]phenyl]methyl]pyrrolidine-2-carboxamide]",60
2,"O=C(NCc1cccc(Oc2ccc(C(F)(F)F)cc2)c1)[C@@H]1CCCN1S(=O)(=O)c1cc(F)cc(F)c1 [Example 188, (2S)-1-(3,5-difluorophenyl)sulfonyl-N-[[3-[4-(trifluoromethyl)phenoxy]phenyl]methyl]pyrrolidine-2-carboxamide]",100
3,"O=C(NCc1cccc(Oc2ccc(C(F)(F)F)cc2)c1)[C@@H]1CCCN1S(=O)(=O)c1ccco1 [Example 189, (2S)-1-(2-furylsulfonyl)-N-[[3-[4-(trifluoromethyl)phenoxy]phenyl]methyl]pyrrolidine-2-carboxamide]",100
4,"O=C(NCc1cccc(Oc2ccc(C(F)(F)F)cc2)c1)[C@@H]1CCCN1S(=O)(=O)c1ccsc1 [Example 190, (2S)-1-(3-thienylsulfonyl)-N-[[3-[4-(trifluoromethyl)phenoxy]phenyl]methyl]pyrrolidine-2-carboxamide]",35
5,"O=C(NCc1cccc(OCc2ccc(C(F)(F)F)cc2)c1)[C@@H]1CCCN1S(=O)(=O)c1ccccc1 [Example 191, (2S)-1-(benzenesulfonyl)-N-[[3-[[4-(trifluoromethyl)phenyl]methoxy]phenyl]methyl]pyrrolidine-2-carboxamide]",66
6,"O=C(NCc1cccc(OCc2ccc(C(F)(F)F)cc2)c1)[C@@H]1CCCN1S(=O)(=O)c1cccc(F)c1 [Example 192, (2S)-1-(3-fluorophenyl)sulfonyl-N-[[3-[[4-(trifluoromethyl)phenyl]methoxy]phenyl]methyl]pyrrolidine-2-carboxamide]",49
7,"O=C(NCc1cccc(OCc2ccc(C(F)(F)F)cc2)c1)[C@@H]1CCCN1S(=O)(=O)c1cccc(Cl)c1 [Example 193, (2S)-1-(3-chlorophenyl)sulfonyl-N-[[3-[[4-(trifluoromethyl)phenyl]methoxy]phenyl]methyl]pyrrolidine-2-carboxamide]",260
8,"N#Cc1cccc(S(=O)(=O)N2CCC[C@H]2C(=O)NCc2cccc(OCc3ccc(C(F)(F)F)cc3)c2)c1 [Example 194, (2S)-1-(3-cyanophenyl)sulfonyl-N-[[3-[[4-(trifluoromethyl)phenyl]methoxy]phenyl]methyl]pyrrolidine-2-carboxamide]",1100
9,"CC(=O)c1ccc(S(=O)(=O)N2CCC[C@H]2C(=O)NCc2cccc(OCc3ccc(C(F)(F)F)cc3)c2)cc1 [Example 195, (2S)-1-(4-acetylphenyl)sulfonyl-N-[[3-[[4-(trifluoromethyl)phenyl]methoxy]phenyl]methyl]pyrrolidine-2-carboxamide]",1700
10,"COc1ccc(S(=O)(=O)N2CCC[C@H]2C(=O)NCc2cccc(OCc3ccc(C(F)(F)F)cc3)c2)cc1 [Example 196, (2S)-1-(4-methoxyphenyl)sulfonyl-N-[[3-[[4-(trifluoromethyl)phenyl]methoxy]phenyl]methyl]pyrrolidine-2-carboxamide]",640
11,"COc1cccc(S(=O)(=O)N2CCC[C@H]2C(=O)NCc2cccc(OCc3ccc(C(F)(F)F)cc3)c2)c1 [Example 197, (2S)-1-(3-methoxyphenyl)sulfonyl-N-[[3-[[4-(trifluoromethyl)phenyl]methoxy]phenyl]methyl]pyrrolidine-2-carboxamide]",1700
12,"COc1ccccc1S(=O)(=O)N1CCC[C@H]1C(=O)NCc1cccc(OCc2ccc(C(F)(F)F)cc2)c1 [Example 198, (2S)-1-(2-methoxyphenyl)sulfonyl-N-[[3-[[4-(trifluoromethyl)phenyl]methoxy]phenyl]methyl]pyrrolidine-2-carboxamide]",3900
13,"O=C(NCc1cccc(OCc2ccc(C(F)(F)F)cc2)c1)[C@@H]1CCCN1S(=O)(=O)c1ccc(OC(F)F)cc1 [Example 199, (2S)-1-[4-(difluoromethoxy)phenyl]sulfonyl-N-[[3-[[4-(trifluoromethyl)phenyl]methoxy]phenyl]methyl]pyrrolidine-2-carboxamide]",2200
14,"O=C(NCc1cccc(OCc2ccc(C(F)(F)F)cc2)c1)[C@@H]1CCCN1S(=O)(=O)c1cccs1 [Example 200, (2S)-1-(2-thienylsulfonyl)-N-[[3-[[4-(trifluoromethyl)phenyl]methoxy]phenyl]methyl]pyrrolidine-2-carboxamide]",60
15,"O=C(NCc1cccc(OCc2ccc(C(F)(F)F)cc2)c1)[C@@H]1CCCN1S(=O)(=O)c1cccnc1 [Example 201, (2S)-1-(3-pyridylsulfonyl)-N-[[3-[[4-(trifluoromethyl)phenyl]methoxy]phenyl]methyl]pyrrolidine-2-carboxamide]",120
16,"O=C(NCc1cccc(OCc2ccc(C(F)(F)F)cc2)c1)[C@@H]1CCCN1S(=O)(=O)c1ccccn1 [Example 202, (2S)-1-(2-pyridylsulfonyl)-N-[[3-[[4-(trifluoromethyl)phenyl]methoxy]phenyl]methyl]pyrrolidine-2-carboxamide]",400
17,"Cc1ccc(S(=O)(=O)N2CCC[C@H]2C(=O)NCc2cccc(OCc3ccc(C(F)(F)F)cc3)c2)o1 [Example 203, (2S)-1-[(5-methyl-2-foryl)sulfonyl]-N-[[3-[[4-(trifluoromethyl)phenyl]methoxy]phenyl]methyl]pyrrolidine-2-carboxamide]",170
18,"Cc1sccc1S(=O)(=O)N1CCC[C@H]1C(=O)NCc1cccc(OCc2ccc(C(F)(F)F)cc2)c1 [Example 204, (2S)-1-[(2-methyl-3-thienyl)sulfonyl]-N-[[3-[[4-(trifluoromethyl)phenyl]methoxy]phenyl]methyl]pyrrolidine-2-carboxamide]",1000
19,"O=C(NCc1cccc(OCc2ccc(C(F)(F)F)cc2)c1)[C@@H]1CCCN1S(=O)(=O)c1cnn(C(F)F)c1 [Example 205, (2S)-1-[1-(difluoromethyl)pyrazol-4-yl]sulfonyl-N-[[3-[[4-(trifluoromethyl)phenyl]methoxy]phenyl]methyl]pyrrolidine-2-carboxamide]",280
20,"O=C(NCc1cccc(OCc2ccc(C(F)(F)F)cc2)c1)[C@@H]1CCCN1S(=O)(=O)c1cnc2ccccc2c1 [Example 206, (2S)-1-(3-quinolylsulfonyl)-N-[[3-[[4-(trifluoromethyl)phenyl]methoxy]phenyl]methyl]pyrrolidine-2-carboxamide]",290
21,"O=C(NCc1cccc(OCc2ccc(C(F)(F)F)cc2)c1)[C@@H]1CCCN1S(=O)(=O)c1ccc2ncccc2c1 [Example 207, (2S)-1-(6-quinolylsulfonyl)-N-[[3-[[4-(trifluoromethyl)phenyl]methoxy]phenyl]methyl]pyrrolidine-2-carboxamide]",1200
22,"O=C(NCc1cccc(OCc2ccc(C(F)(F)F)cc2)c1)[C@@H]1CCCN1S(=O)(=O)c1cc2ccccc2s1 [Example 208, (2S)-1-(benzothiophen-2-ylsulfonyl)-N-[[3-[[4-(trifluoromethyl)phenyl]methoxy]phenyl]methyl]pyrrolidine-2-carboxamide]",87
23,"O=C(NCc1cccc(OCc2ccc(C(F)(F)F)cc2)c1)[C@@H]1CCCN1S(=O)(=O)c1ccc2ncsc2c1 [Example 209, (2S)-1-(1,3-benzothiazol-6-ylsulfonyl)-N-[[3-[[4-(trifluoromethyl)phenyl]methoxy]phenyl]methyl]pyrrolidine-2-carboxamide]",2900
24,"O=C(NCc1cccc(OCc2ccc(C(F)(F)F)cc2)c1)[C@@H]1CCCN1S(=O)(=O)c1ccc2nsnc2c1 [Example 210, (2S)-1-(2,1,3-benzothiadiazol-5-ylsulfonyl)-N-[[3-[[4-(trifluoromethyl)phenyl]methoxy]phenyl]methyl]pyrrolidine-2-carboxamide]",150
25,"O=C(NCc1cccc(OCc2ccc(C(F)(F)F)cc2)c1)[C@@H]1CCCN1S(=O)(=O)c1cccc2nsnc12 [Example 211, (2S)-1-(2,1,3-benzothiadiazol-4-ylsulfonyl)-N-[[3-[[4-(trifluoromethyl)phenyl]methoxy]phenyl]methyl]pyrrolidine-2-carboxamide]",5500
26,"O=C(NCc1cccc(OCc2ccc(C(F)(F)F)cc2)c1)[C@@H]1CCCN1S(=O)(=O)c1cccc2nonc12 [Example 212, (2S)-1-(2,1,3-benzoxadiazol-4-ylsulfonyl)-N-[[3-[[4-(trifluoromethyl)phenyl]methoxy]phenyl]methyl]pyrrolidine-2-carboxamide]",6200
27,"O=C(NCc1cccc(OCc2ccc(C(F)(F)F)cc2)c1)[C@@H]1CC=CCN1S(=O)(=O)c1ccc(F)cc1 [Example 213, (2S)-1-(4-fluorophenyl)sulfonyl-N-[[3-[[4-(trifluoromethyl)phenyl]methoxy]phenyl]methyl]-3,6-dihydro-2H-pyridine-2-carboxamide]",350
28,"O=C(NCc1cccc(OCc2ccc(C(F)(F)F)cc2)c1)[C@@H]1[C@H]2CC[C@H](C2)N1S(=O)(=O)c1ccc(F)cc1 [Example 214, (1S,2S,4R)-3-(4-fluorophenyl)sulfonyl-N-[[3-[[4-(trifluoromethyl)phenyl]methoxy]phenyl]methyl]-3-azabicyclo[2.2.1] heptane-2-carboxamide]",120
29,"O=C(NCc1cccc(OCc2ccc(C(F)(F)F)cc2)c1)[C@@H]1[C@H]2CC[C@H](C2)N1S(=O)(=O)c1ccsc1 [Example 215, (1S,2S,4R)-3-(3-thienylsulfonyl)-N-[[3-[[4-(trifluoromethyl)phenyl]methoxy]phenyl]methyl]-3-azabicyclo[2.2.1]heptane-2-carboxamide]",110
30,"O=C(NCc1cccc(OCc2ccc(C(F)(F)F)cc2)c1)[C@@H]1CCCN1S(=O)(=O)c1ccncc1 [Example 216, (2S)-1-(4-pyridylsulfonyl)-N-[[3-[[4-(trifluoromethyl)phenyl]methoxy]phenyl]methyl]pyrrolidine-2-carboxamide]",60

# Reference: US20150284375A1 (AJINOMOTO CO., INC., priority 2012, published 2015)
